From patent publication US20090029983A1, “NOVEL HETEROCYCLIC COMPOUNDS HAVING ANTI-HBV ACTIVITY” (priority 2005, published 2009) come the findings set out here.

As usually defined, the EC50 is the concentration needed to bring the measured effect to its halfway point.

Some results are limits rather than exact numbers.

One assay concerns HBV. The assay is described as follows: HBV screening assay (viral DNA in baculovirus-HBV transduced HepG2 cells). Type of assay: cell-based. The conditions noted are these: Hepatitis B virus, HepG2, 72 h, read-out: EC50 (antiviral activity), HBV-transduced HepG2 cells, three days with compound, viral DNA by ELISA. The method, then:
HepG2 cells were transduced using a baculovirus to deliver the HBV genome essentially as previously described (Delaney et al. in Hepatology 1998; 28: 1134-1146). Transduced cells were cultured in supplemented EMEM media with 10% fetal bovine serum in a 5% CO2 incubator at 37° C. for three days in the presence of test compounds. The cells were lysed in a buffer containing 0.5% NP-40 and […] proteinase K. A solid-phase hybridization was performed to capture the viral DNA and to label the target DNA with Digoxigenin-labeled DNA probes. The viral DNA was detected by ELISA, using horseradish peroxidase-conjugated anti-digoxigenin antibodies.
The EC50 values were determined using ExcelFit software from the inhibition values of a titration curve for each compound. For CC50 determinations, the same titration of compounds was co-cultured with non-transduced HepG2 for three days under the conditions described above. The Promega CellTiter 96 Aqueous One Solution Cell Proliferation Assay was used to measure cell proliferation/viability. The CC50 values were determined using ExcelFit software from the inhibition values of the titration curve for each compound.
Turning to `NC(=O)c1sc2nc3c(c(-c4cccs4)c2c1N)CCC3CC(=O)NC1CCC1` (centres unmarked) [Compound 50, 3-Amino-7-cyclobutylcarbamoylmethyl-4-thiophen-2-yl-6,7-dihydro-5H-cyclopenta[b]thieno[3,2-e]pyridine-2-carboxylic acid amide], the concentration for a half-maximal effect (EC50) is over 10 µM. As to `CC1CCc2c1nc1sc(C(N)=O)c(N)c1c2-c1cccs1` (centres unmarked) [Compound 37, 3-Amino-7-methyl-4-thiophen-2-yl-6,7-dihydro-5H-cyclopenta[b]thieno[3,2-e]pyridine-2-carboxylic acid amide], the EC50 was under 1 µM.

As to `COC(=O)c1ccc(NC(=S)N2Cc3nc4sc(C(N)=O)c(N)c4c(-c4cccs4)c3C2)cc1` [Compound 90, 4-[(3-Amino-2-carbaomyl-4-thiophen-2-yl-5,7-dihydro-1-thia-6,8-diaza-s-indacene-6-carbothioyl)-amino]benzoic acid methylester], the 50% effective concentration (EC50) is over 10 µM. For `CC1CCc2c(nc3sc(C(N)=O)c(N)c3c2-c2cccs2)C1` (centres unmarked) [Compound 74, 3-Amino-7-methyl-4-thiophen-2-yl-5,6,7,8-tetrahydro-thieno[2,3-b]quinoline-2-carboxylic acid amide], the EC50 was over 10 µM.

On to `CCC1CCc2nc3sc(C(N)=O)c(N)c3c(-c3cccs3)c2C1` (centres unmarked) [Compound 73, 3-Amino-6-ethyl-4-thiophen-2-yl-5,6,7,8-tetrahydro-thieno[2,3-b]quinoline-2-carboxylic acid amide], for which the concentration for a half-maximal effect (EC50) is over 10 µM. Take `NC(=O)c1sc2nc3c(c(-c4cccs4)c2c1N)CN(Cc1ccccn1)C3` [Compound 7, 3-Amino-6-pyridin-2-ylmethyl-4-thiophen-2-yl-6,7-dihydro-5H-1-thia-6,8-diaza-s-indacene-2-carboxylic acid amide]: the 50% effective concentration (EC50) was over 10 µM. As for `CC(C)CCN1Cc2nc3sc(C(N)=O)c(N)c3c(-c3cccs3)c2C1` [Compound 6, 3-Amino-6-(3-methyl-butyl)-4-thiophen-2-yl-6,7-dihydro-5H-1-thia-6,8-diaza-s-indacene-2-carboxylic aicd amide], the EC50 was over 10 µM. Turning to `NC(=O)c1sc2nc3c(c(-c4cccs4)c2c1N)CCC3CC(=O)NCCCN1CCOCC1` (centres unmarked) [Compound 57, 3-Amino-7-[(3-morpholin-4-yl-propylcarbamoyl)-methyl]-4-thiophen-2-yl-6,7-dihydro-5H-cyclopenta[b]thiano[3,2-e]pyridine-2-carboxylic acid amide], the EC50 was over 10 µM. With `NC(=O)c1sc2nc3c(c(-c4cccs4)c2c1N)CN(Cc1cccc(F)c1)C3` [Compound 23, 3-Amino-6-(3-fluoro-benzyl)-4-thipohen-2-yl-6,7-dihydro-5H-1-thia-6,8-diaza-s-indacene-2-carboxylic acid amide], the half-maximal effective concentration (EC50) is over 10 µM. Turning to `CC(C)CC1CCCc2c1nc1sc(C(N)=O)c(N)c1c2-c1cccs1` (centres unmarked) [Compound 63, 3-Amino-8-isobutyl-4-thiophen-2-yl-5,6,7,8-tetrahydro-thieno[2,3-b]quinoline-2-carboxylic acid amide], the EC50 fell in the range of 1 to 10 µM. For `CC1CCCCN1CCCNC(=O)CC1CCc2c1nc1sc(C(N)=O)c(N)c1c2-c1cccs1` (centres unmarked) [Compound 58, 3-Amino-7-{[3-(2-methyl-piperidin-1-yl)-propylcarbamoyl]-methyl}-4-thiophen-2-yl-6,7-dihydro-5H-cyclopenta[b]thieno[3,2-e]pyridine-2-carboxylic acid amide], the concentration for a half-maximal effect (EC50) was over 10 µM. With `COc1ccccc1-c1nc(CN2Cc3nc4sc(C(N)=O)c(N)c4c(-c4cccs4)c3C2)no1` [Compound 5, 3-Amino-6-[5-(2-methoxy-phenyl)-[1,2,4]oxadiazol-3-ylmethyl]-4-thiophen-2-yl-6,7-dihydro-5H-1-thia-6,8-diaza-s-indacene-2-carboxylic acid amide], the EC50 was in the range of 1 to 10 µM.

Turning to `Cc1ccc(NC(=S)N2Cc3nc4sc(C(N)=O)c(N)c4c(-c4cccs4)c3C2)cc1` [Compound 83, 3-Amino-4-thiophen-2-yl-6-p-tolylthiocarbamoyl-6,7-dihydro-5H-1-thia-6,8-diaza-s-indacene-2-carboxylic acidamide], the concentration for a half-maximal effect (EC50) is over 10 µM. Regarding `CNC(=O)CC1CCc2c1nc1sc(C(N)=O)c(N)c1c2-c1cccs1` (centres unmarked) [Compound 42, 3-Amino-7-methylcarbamoylmethyl-4-thiophen-2-yl-6,7-dihydro-5H-cyclopenta[b]thieno[3,2-e]pyridine-2-carboxylic acid amide], the EC50 was in the range of 1 to 10 µM. Take `NC(=O)c1sc2nc3c(c(-c4cccs4)c2c1N)CN(C(=S)NC1CCCC1)C3` [Compound 81, 3-Amino-6-cyclopentylthiocarbamoyl-4-thiophen-2-yl-6,7-dihydro-5H-1-thia-6,8-diaza-s-indacene-2-carboxylic acid amide]: the concentration for a half-maximal effect (EC50) is 1 to 10 µM. The same measure, in the same setting: then `NC(=O)c1sc2nc3c(c(-c4cccs4)c2c1N)CN(CC1CC1)C3` [Compound 8, 3-Amino-6-cyclopropylmethyl-4-thiophen-2-yl-6,7-dihydro-5H-1-thia-6,8-diaza-s-indacene-2-carboxylic acid amide], with over 10 µM; and `COC1CCCc2c1nc1sc(C(N)=O)c(N)c1c2-c1cccs1` (centres unmarked) [Compound 69, 3-Amino-8-methoxy-4-thiophen-2-yl-5,6,7,8-tetrahydro-thieno[2,3-b]quinoline-2-carboxylic acid amide], with under 1 µM. On to `CCCCCN1Cc2nc3sc(C(N)=O)c(N)c3c(-c3cccs3)c2C1` [Compound 16, 3-Amino-6-pentyl-4-thiophen-2-yl-6,7-dihydro-5H-1-thia-6,8-diaza-s-indacene-2-carboxylic acid amide], for which the EC50 is over 10 µM. Turning to `NC(=O)c1sc2nc3c(c(-c4cccs4)c2c1N)CN(C(=S)NCC1CCCO1)C3` (centres unmarked) [Compound 80, 3-Amino-6-[(tetrahydro-furan-2-ylmethyl)-thiocarbamoyl]-4-thiophen-2-yl-6,7-dihydro-5H-1-thia-6,8-diaza-s-indacene-2-carboxylic acid amide], the concentration giving a half-maximal response (EC50) was over 10 µM. The same measure, in the same setting: with `NC(=O)c1sc2nc3c(c(-c4cccs4)c2c1N)C(=O)CCC3` [Compound 76, 3-Amino-4-(thiophen-2-yl)-5-oxo-5,6,7,8-tetrahydro-thieno[2,3-b]quinoline-2-carboxylic acid amide] the figure was 1 to 10 µM; with `Cc1ccccc1CN1Cc2nc3sc(C(N)=O)c(N)c3c(-c3cccs3)c2C1` [Compound 22, 3-Amino-6-(2-methyl-benzyl)-4-thiophen-2-yl-6,7-dihydro-5H-1-thia-6,8-diaza-s-indacene-2-carboxylic acid amide], 1 to 10 µM. For `CC(O)CNCCCN1Cc2nc3sc(C(N)=O)c(N)c3c(-c3cccs3)c2C1` (centres unmarked) [Compound 28, 3-Amino-6-[3-(2-hydroxy-propylamino)-propyl]-4-thiophen-2-yl-6,7-dihydro-5H-1-thia-6,8-diaza-s-indacene-2-carboxylic acidamide], the EC50 is over 10 µM.

For the compound `Cc1cc(C)cc(NC(=S)N2Cc3nc4sc(C(N)=O)c(N)c4c(-c4cccs4)c3C2)c1` [Compound 92, 3-Amino-6-(3,5-dimethyl-phenylthiopcarbamoyl)-4-thiophen-2-yl-6,7-dihydro-5H-1-thia-6,8-diaza-s-indacene-2-carboxylic acid amide], the concentration for a half-maximal effect (EC50) was over 10 µM. `NC(=O)c1sc2nc3c(c(-c4cccs4)c2c1N)CCC3CC(=O)NCc1ccccn1` (centres unmarked) [Compound 45, 3-Amino-7-{[(pyridin-2-ylmethyl)-carbamoyl]-methyl}-4-thiophen-2-yl-6,7-dihydro-5H-cyclopenta[b]thieno[3,2-e]pyridine-2-carboxylic acid amide]: the EC50 was over 10 µM. For the compound `CN(C)C(=O)CC1CCc2c1nc1sc(C(N)=O)c(N)c1c2-c1cccs1` (centres unmarked) [Compound 49, 3-Amino-7-dimethylcarbamoylmethyl-4-thiophen-2-yl-6,7-dihydro-5H-cyclopenta[b]thieno[3,2-e]pyridine-2-carboxylic acid amide], the EC50 is over 10 µM. For `CCCCNC(=S)N1Cc2nc3sc(C(N)=O)c(N)c3c(-c3cccs3)c2C1` [Compound 82, 3-Amino-6-butylthiocarbamoyl-4-thiophen-2-yl-6,7-dihydro-5H-1-thia-6,8-diaza-s-indacene-2-carboxylic acid amide], the EC50 fell in the range of 1 to 10 µM.

Consider `NC(=O)c1sc2nc3c(c(-c4cccs4)c2c1N)CN(CCCN1CCOCC1)C3` [Compound 27, 3-Amino-6-(3-morpholin-4-yl-propyl)-4-thiophen-2-yl-6,7-dihydro-5H-1-thia-6,8-diaza-s-indacene-2-carboxylic acid amide], for which the half-maximal effective concentration (EC50) was over 10 µM. For `CCOC(=O)N1CCC(NC(=O)CC2CCc3c2nc2sc(C(N)=O)c(N)c2c3-c2cccs2)CC1` (centres unmarked) [Compound 54, 4-[2-(3-Amino-2-carbamoyl-4-thiophen-2-yl-6,7-dihydro-5H-cyclopenta[b]thiano[3,2-e]pyridin-7-yl)-acetylamino]-piperidine-1-carboxylic acid ethyl ester], the 50% effective concentration (EC50) is over 10 µM.

Staying with this assay, now noted: read-out: EC50 (antiviral activity); HBV-transduced HepG2 cells, three days with compound, viral DNA by ELISA.
As to `NC(=O)c1sc2nc3c(c(-c4cccs4)c2c1N)CN(C(=S)NCc1ccccc1)C3` [Compound 84, 3-Amino-6-benzylthiocarbamoyl-4-thiophen-2-yl-6,7-dihydro-5H-1-thia-6,8-diaza-s-indacene-2-carboxylic acid amide], the EC50 is 1 to 10 µM.
